# Measured values as given in ChEMBL document CHEMBL3885861, “Open TG-GATES”.
# Species on record: Rattus norvegicus
# Assay: Open TG-GATES - Regimen: Single
# Format: toxicity, organism-based, Sprague-Dawley
# Parameters: regimen Single, gender Male, age 6 weeks
# Conditions: in vivo, po, 30 mg/kg, route gavage, dose level Low; for APTT / Bas / Eos / Fbg / Hb / Ht / Lym / MCH / MCHC / MCV / Mono / Neu / PT / Plat / RBC / Ret / WBC: tissue Blood; for KIDNEY_L / KIDNEY_R / KIDNEY_TOTAL: tissue Kidney; for LIVER: tissue Liver; for A/G / ALP / ALT / AST / BUN / CRE / Ca / Cl / DBIL / GLC / IP / K / LDH / Na / PL / RALB / TBIL / TC / TG / TP / gamma-GTP: tissue Plasma
structure (smiles),measurement,setting,value
CCCNC(=O)NS(=O)(=O)c1ccc(Cl)cc1 [CHLORPROPAMIDE],TERMINAL_BW,3 h,200 g
same,APTT,3 h,16.8 s
same,Bas,3 h,0.4%
same,Eos,3 h,0.8%
same,Fbg,3 h,301.8 mg/dL
same,Hb,3 h,13.1 g/dL
same,Ht,3 h,40%
same,Lym,3 h,76.8%
same,MCH,3 h,20.9 pg
same,MCHC,3 h,32.7%
same,MCV,3 h,64 fL
same,Mono,3 h,3.6%
same,Neu,3 h,17.8%
same,PT,3 h,15.6 s
same,Plat,3 h,122.9 x10_4/uL
same,RBC,3 h,625.4 x10_4/ul
same,Ret,3 h,9.8%
same,WBC,3 h,80.3 x10_2/uL
same,KIDNEY_L,3 h,0.9 g
same,KIDNEY_R,3 h,0.9 g
same,KIDNEY_TOTAL,3 h,1.8 g
same,LIVER,3 h,8.7 g
same,A/G,3 h,0.9
same,ALP,3 h,1308.8 IU/L
same,ALT,3 h,44 IU/L
same,AST,3 h,74.4 IU/L
same,BUN,3 h,10.6 mg/dL
same,CRE,3 h,0.2 mg/dL
same,Ca,3 h,10.8 mg/dL
same,Cl,3 h,106.2 meq/L
same,DBIL,3 h,0.008 mg/dL
same,GLC,3 h,154.4 mg/dL
same,IP,3 h,9.5 mg/dL
same,K,3 h,4 meq/L
same,LDH,3 h,83.6 IU/L
same,Na,3 h,143 meq/L
same,PL,3 h,131.4 mg/dL
same,RALB,3 h,2.5 g/dL
same,TBIL,3 h,0.038 mg/dL
same,TC,3 h,74.2 mg/dL
same,TG,3 h,47.2 mg/dL
same,TP,3 h,5.4 g/dL
same,gamma-GTP,3 h,1.2 IU/L
same,TERMINAL_BW,6 h,197.5 g
same,APTT,6 h,17.5 s
same,Bas,6 h,0.2%
same,Eos,6 h,1%
same,Fbg,6 h,277.8 mg/dL
same,Hb,6 h,13.3 g/dL
same,Ht,6 h,40.8%
same,Lym,6 h,74.4%
same,MCH,6 h,21 pg
same,MCHC,6 h,32.7%
same,MCV,6 h,64.3 fL
same,Mono,6 h,2.8%
same,Neu,6 h,20.4%
same,PT,6 h,15.4 s
same,Plat,6 h,114.9 x10_4/uL
same,RBC,6 h,633.4 x10_4/ul
same,Ret,6 h,9.6%
same,WBC,6 h,80.6 x10_2/uL
same,KIDNEY_L,6 h,0.9 g
same,KIDNEY_R,6 h,0.9 g
same,KIDNEY_TOTAL,6 h,1.8 g
same,LIVER,6 h,8.1 g
same,A/G,6 h,0.9
same,ALP,6 h,1395.6 IU/L
same,ALT,6 h,41 IU/L
same,AST,6 h,75.4 IU/L
same,BUN,6 h,9 mg/dL
same,CRE,6 h,0.2 mg/dL
same,Ca,6 h,10.5 mg/dL
same,Cl,6 h,106.8 meq/L
same,DBIL,6 h,0.004 mg/dL
same,GLC,6 h,150.8 mg/dL
same,IP,6 h,9.4 mg/dL
same,K,6 h,4.2 meq/L
same,LDH,6 h,72.6 IU/L
same,Na,6 h,143 meq/L
same,PL,6 h,123.6 mg/dL
same,RALB,6 h,2.5 g/dL
same,TBIL,6 h,0.036 mg/dL
same,TC,6 h,74.2 mg/dL
same,TG,6 h,35.4 mg/dL
same,TP,6 h,5.2 g/dL
same,gamma-GTP,6 h,1 IU/L
same,TERMINAL_BW,9 h,194.6 g
same,APTT,9 h,16.9 s
same,Bas,9 h,0%
same,Eos,9 h,1.2%
same,Fbg,9 h,296 mg/dL
same,Hb,9 h,13.2 g/dL
same,Ht,9 h,40.5%
same,Lym,9 h,77.4%
same,MCH,9 h,21.4 pg
same,MCHC,9 h,32.6%
same,MCV,9 h,65.5 fL
same,Mono,9 h,3.2%
same,Neu,9 h,17.2%
same,PT,9 h,15.4 s
same,Plat,9 h,118 x10_4/uL
same,RBC,9 h,618.6 x10_4/ul
same,Ret,9 h,9.1%
same,WBC,9 h,84.5 x10_2/uL
same,KIDNEY_L,9 h,0.9 g
same,KIDNEY_R,9 h,0.9 g
same,KIDNEY_TOTAL,9 h,1.7 g
same,LIVER,9 h,7.7 g
same,A/G,9 h,0.9
same,ALP,9 h,1280.4 IU/L
same,ALT,9 h,38 IU/L
same,AST,9 h,70.8 IU/L
same,BUN,9 h,9.8 mg/dL
same,CRE,9 h,0.2 mg/dL
same,Ca,9 h,10.6 mg/dL
same,Cl,9 h,107.8 meq/L
same,DBIL,9 h,0.002 mg/dL
same,GLC,9 h,158.4 mg/dL
same,IP,9 h,9.8 mg/dL
same,K,9 h,4.1 meq/L
same,LDH,9 h,62.2 IU/L
same,Na,9 h,143.4 meq/L
same,PL,9 h,134 mg/dL
same,RALB,9 h,2.5 g/dL
same,TBIL,9 h,0.032 mg/dL
same,TC,9 h,81.4 mg/dL
same,TG,9 h,43.4 mg/dL
same,TP,9 h,5.4 g/dL
same,gamma-GTP,9 h,1 IU/L
same,TERMINAL_BW,24 h,210.7 g
same,APTT,24 h,26 s
same,Bas,24 h,0%
same,Eos,24 h,1%
same,Fbg,24 h,290 mg/dL
same,Hb,24 h,13 g/dL
same,Ht,24 h,40.1%
same,Lym,24 h,79.2%
same,MCH,24 h,21.4 pg
same,MCHC,24 h,32.4%
same,MCV,24 h,65.9 fL
same,Mono,24 h,3%
same,Neu,24 h,15.2%
same,PT,24 h,15.6 s
same,Plat,24 h,120.5 x10_4/uL
same,RBC,24 h,608.2 x10_4/ul
same,Ret,24 h,8.4%
same,WBC,24 h,96.6 x10_2/uL
same,KIDNEY_L,24 h,0.9 g
same,KIDNEY_R,24 h,0.9 g
same,KIDNEY_TOTAL,24 h,1.9 g
same,LIVER,24 h,9.6 g
same,A/G,24 h,0.9
same,ALP,24 h,1710 IU/L
same,ALT,24 h,47.6 IU/L
same,AST,24 h,73 IU/L
same,BUN,24 h,15 mg/dL
same,CRE,24 h,0.2 mg/dL
same,Ca,24 h,10.8 mg/dL
same,Cl,24 h,105.4 meq/L
same,DBIL,24 h,0.01 mg/dL
same,GLC,24 h,192.8 mg/dL
same,IP,24 h,8.4 mg/dL
same,K,24 h,4.1 meq/L
same,LDH,24 h,78.4 IU/L
same,Na,24 h,142.4 meq/L
same,PL,24 h,150.2 mg/dL
same,RALB,24 h,2.6 g/dL
same,TBIL,24 h,0.034 mg/dL
same,TC,24 h,84 mg/dL
same,TG,24 h,73.8 mg/dL
same,TP,24 h,5.5 g/dL
same,gamma-GTP,24 h,1 IU/L
